Activity calls are given as the source filed them. The calls are words filed in the database; no cut-off is given here.
Columns and labels:
[1] = test system: Staphylococcus aureus subsp. aureus COL; test: Inhibition of Staphylococcus aureus COL TarO assessed as concentration of compound for potentiation of action of imipenem-mediated bacterial growth inhibition
[2] = Inhibition of Methicillin-resistant Staphylococcus aureus COL TarO assessed as suppression of bacteriophageK-mediated cell lysis; design: species or system Staphylococcus aureus subsp. aureus COL
[3] = Binding affinity to Methicillin-resistant Staphylococcus aureus COL TarG assessed as suppression of targocil-mediated bacterial growth inhibition after 20 hrs in presence of L-638; design: species or system Staphylococcus aureus subsp. aureus COL
[4] = test system: Staphylococcus aureus; test: Inhibition of Methicillin-resistant Staphylococcus aureus TarO assessed as percentage of MRSA MITC<=25 uM for 25 isolates; design: scale not given: the % may be the effect or the level left
[5] = test system: Staphylococcus epidermidis; test: Inhibition of Methicillin-resistant Staphylococcus epidermidis TarO assessed as percentage of MRSE MITC<=25 uM for 25 isolates; design: scale not given: the % may be the effect or the level left
[6] = Inhibition of Staphylococcus aureus TarO; design: species or system Staphylococcus aureus subsp. aureus COL
[7] = Inhibition of TarA (unknown origin) at 200 uM
[8] = Inhibition of mnaA (unknown origin) at 200 uM

In the case of `CC(C)(C)OC(=O)N1CCC(c2nc3ccccc3n2CCC(=O)N[C@H]2CC3CC[C@@]2(C)C3(C)C)CC1`, the MITC95 [1] is reported as 9.4 µM, the EC50 [2] is reported as 162 µM and the EC50 [3] is reported as 58.7 µM.
With `CCN(C(=O)CCn1c(N2CCC(C(C)(C)C)CC2)nc2ccccc21)C1CCCCC1` the MITC95 [1] was 0.016 µM, the EC50 [2] was 0.25 µM and the EC50 [3] was 0.13 µM. For the same compound, the Activity [4] was 76% and the Activity [5] was 29%.
With `CCN(C(=O)CCn1c(N2CCC(C)CC2)nc2ccccc21)C1CCCCC1` the MITC95 [1] was 1.3 µM, the EC50 [2] was 3.8 µM and the EC50 [3] was 0.91 µM.
Compound `CCN1CCC(c2nc3ccccc3n2CCC(=O)N[C@H]2CC3CC[C@@]2(C)C3(C)C)CC1` has an MITC95 [1] of over 200 µM, an EC50 [2] of over 200 µM and an EC50 [3] of over 200 µM.
Work on `CCN(C(=O)CCn1c(C2CCCCC2)nc2ccccc21)c1ccccc1` yielded an MITC95 [1] of 50 µM, an EC50 [2] of 200 µM and an EC50 [3] of 200 µM.
`CN(C(=O)CCn1c(C2CCCCC2)nc2ccccc21)C1CCCCC1` showed an MITC95 [1] of 4.7 µM, an EC50 [2] of 25 µM and an EC50 [3] of 11.4 µM.
Compound `CC(=O)N1CCC(c2nc3ccccc3n2CCC(=O)N[C@H]2CC3CC[C@@]2(C)C3(C)C)CC1` has an MITC95 [1] of over 200 µM, an EC50 [2] of over 200 µM and an EC50 [3] of over 200 µM.
For `O=C(CCn1c(C2CCCCC2)nc2ccccc21)NC1CCCCC1`, the MITC95 [1] was 25 µM, the EC50 [2] was 200 µM and the EC50 [3] was 138 µM.
In the case of `CCC1CCC(c2nc3ccccc3n2CCC(=O)N(CC)C2CCCCC2)CC1` (stereo not given), the MITC95 [1] is reported as 0.03 µM, the EC50 [2] is reported as 0.22 µM and the EC50 [3] is reported as 0.24 µM.
`CC1(C)C2CC[C@]1(C)[C@@H](NC(=O)CCn1c(C3CCNCC3)nc3ccccc31)C2` gave an MITC95 [1] of over 200 µM, an EC50 [2] of over 200 µM and an EC50 [3] of over 200 µM.
With `CCN(C(=O)CCn1c2cc(Br)ccc2nc1[C@H]1CC[C@H](CC)CC1)C1CCCCC1` the MITC95 [1] was 0.031 µM, the EC50 [2] was 0.24 µM and the EC50 [3] was 0.33 µM. For the same compound, the Activity [4] was 68% and the Activity [5] was 42%.
For `CC1(C)[C@@H]2CC[C@@]1(C)[C@@H](NC(=O)CCn1c(C3CCCCC3)nc3ccccc31)C2`, the MITC95 [1] was 16.7 µM, the EC50 [2] was 178 µM and the EC50 [3] was 57.7 µM.
With `CCN(C(=O)CCn1c(C2CCCCC2)nc2ccccc21)C1CCCC1` the MITC95 [1] was 12.5 µM, the EC50 [2] was 200 µM and the EC50 [3] was 29.7 µM.
For `CCN(C(=O)CCn1c(C2CCCCC2)nc2ccccc21)C1CCCCC1`, the MITC95 [1] was 1.9 µM, the EC50 [2] was 10.1 µM and the EC50 [3] was 6.2 µM.
Work on `CC1(C)C2CC[C@]1(C)[C@@H](NC(=O)CCn1c(C3CCN(S(C)(=O)=O)CC3)nc3ccccc31)C2` yielded an MITC95 [1] of over 200 µM, an EC50 [2] of over 200 µM and an EC50 [3] of over 200 µM.
For `CCN(C(=O)CCn1c(C2CCC(C(C)(C)C)CC2)nc2ccccc21)C1CCCCC1` (stereo not given), the MITC95 [1] was 0.015 µM, the EC50 [2] was 0.25 µM and the EC50 [3] was 0.05 µM.
With `CCN(C(=O)CCn1c(N2CCCCC2)nc2ccccc21)C1CCCCC1` the MITC95 [1] was 4.7 µM, the EC50 [2] was over 200 µM and the EC50 [3] was 7 µM.
`CCN(C(=O)CCn1c2cccc(C)c2nc1[C@H]1CC[C@H](CC)CC1)C1CCCCC1` showed an MITC95 [1] of 0.1 µM, an EC50 [2] of 0.9 µM and an EC50 [3] of 0.8 µM. It also gave an Activity [4] of 68% and an Activity [5] of 92%.
Compound `CCC1CCN(c2nc3ccccc3n2CCC(=O)N(CC)C2CCCCC2)CC1` has an MITC95 [1] of 0.1 µM, an EC50 [2] of 0.39 µM and an EC50 [3] of 0.22 µM.
In the case of `CCN(C(=O)CCn1c2ccc(Br)cc2nc1[C@H]1CC[C@H](CC)CC1)C1CCCCC1`, the MITC95 [1] is reported as 0.004 µM, the EC50 [2] is reported as 0.027 µM and the EC50 [3] is reported as 0.015 µM. The Activity [4] was 80% and the Activity [5] was 46%.
In the case of `CCN(C(=O)CCn1c2cccc(Br)c2nc1[C@H]1CC[C@H](CC)CC1)C1CCCCC1`, the MITC95 [1] is reported as 0.3 µM, the EC50 [2] is reported as 3.4 µM and the EC50 [3] is reported as 1.3 µM. The Activity [4] was 68% and the Activity [5] was 83%.
`CCCN(C(=O)CCn1c(C2CCCCC2)nc2ccccc21)C1CCCCC1` showed an MITC95 [1] of 6.2 µM, an EC50 [2] of 200 µM and an EC50 [3] of 7.8 µM.
`CCN(C(=O)CCn1c(C2CCCCC2)nc2ccccc21)C1CCCCCC1` showed an MITC95 [1] of 4.7 µM, an EC50 [2] of 200 µM and an EC50 [3] of 200 µM.
With `CC1(C)[C@@H]2CC[C@@]1(C)[C@H](NC(=O)CCn1c(C3CCCCC3)nc3ccccc31)C2` the IC50 [6] was 0.4 µM, the MITC95 [1] was 1.6 µM and the inhibition [7] was “inactive”. The inhibition [8] was “inactive”, the EC50 [2] was 7.9 µM and the EC50 [3] was 2.4 µM.

— ChEMBL document CHEMBL4425162, “Discovery of potent wall teichoic acid early stage inhibitors” (Bioorg Med Chem Lett, 2016)
